The test system of the experiment is Histamin-H₂-Rezeptor. Briefly: Antagonism of the dimaprit-induced fall in blood pressure in the anaesthetised rat, test substance given i.v. The experiment is classed as in vivo, Ratten (Stamm: Sprague-Dawley, männlich). The procedure:
Sie kann in 1 bis 4 Dosen/Tag aufgeteilt werden.
Zum Nachweis der Histamin-H₂-Rezeptor-blockierenden Wirkung wird folgende Methode angewendet.
Die Applikation der geprüften Substanzen erfolgt intravenös 5 min vor der Dimaprit-Injektion. Als ED 50 % werden die Dosen ermittelt, welche die Dimaprit-Blutdrucksenkung um 50 % hemmen.

Consider `CNC(=NC#N)NCCSCc1nc[nH]c1C` [Cimetidin], for which the “Hemmung der Dimaprit-Blutdrucksenkung” value (anaesthetised rats (urethane 1,78 g/kg i.p.), substance i.v. 5 min before Dimaprit 3,16 mg/kg i.v.) is reported as “hemmen diese Dimaprit-Blutdrucksenkung dosisabhängig”.
Regarding `CN(C)CCCSC(=N)N` [Dimaprit, S-[3-(N,N-dimethylamino)propyl]isothio urea], under “Dimaprit 3,16 mg/kg i.v. alone, anaesthetised rats, mean, baseline pressure 100 ± 1, 1 mmHg, N = 70”, the Blutdrucksenkungen was 27 ± 0,7 mmHg.
Take `CNC(=NC#N)NCCCCn1c(C)ccc1C` [Verbindung des Beispiels 12]: under “result in words, potency compared with Cimetidin, b35 names no test, assigned to the only test described”, the “Histamin-H₂-Rezeptoren-blockierende Wirkung” value is “wesentlich schwächer wirksam als Cimetidin”.

The values above are taken from patent EP0213571A2, “3-Aminomethyl pyrrol-1-yl-alkyl amines and medicaments containing these compounds” (BASF Aktiengesellschaft, priority 1985, dated 1987).
